Calls of active or inactive are those of the source.
Columns and labels:
Staphylococcus aureus = assay: Antimicrobial activity against Staphylococcus aureus ATCC 6538 at 1 uM; type: functional, organism-based
KB = assay: Cytotoxicity against human KB cells at 0.1 uM; type: functional, cell-based
Candida tropicalis = assay: Antimicrobial activity against Candida tropicalis IP 209.73 at 1 uM; type: functional, organism-based
Escherichia coli = assay: Antimicrobial activity against Escherichia coli ATCC 8739 at 1 uM; type: functional, organism-based

Measured: Activity

COC(c1ccc(O)cc1)C1(OC)C(=O)/C(=C2/C(=O)/C(=C/c3ccc(O)cc3)c3[nH]c4ccccc4c32)c2c1[nH]c1ccccc21 (configuration not stated)
inactive: Staphylococcus aureus | KB Not toxic | Candida tropicalis | Escherichia coli

COC(=O)C1=C(c2c(/C(=C\c3ccc(O)cc3)C(=O)OC)[nH]c3ccccc23)C(=O)c2[nH]c3ccccc3c21
inactive: Staphylococcus aureus | KB Not toxic | Candida tropicalis | Escherichia coli

COC(c1ccc(O)cc1)C1(OC)C(=O)/C(=C2/C(=O)C(OC)(C(OC)c3ccc(O)cc3)c3[nH]c4ccccc4c32)c2c1[nH]c1ccccc21 (configuration not stated)
inactive: Staphylococcus aureus | KB Not toxic | Candida tropicalis | Escherichia coli

Source: ChEMBL document CHEMBL1151183, “New pigments from the terrestrial cyanobacterium Scytonema sp. collected on the Mitaraka inselberg, French Guyana” (J Nat Prod, 2004)
